According to ChEMBL document CHEMBL1148205, “Strongylophorine-26, a new meroditerpenoid isolated from the marine sponge Petrosia (Strongylophora) corticata that exhibits anti-invasion activity” (J Nat Prod, 2004):
Converted amounts (≈) assume the structure as drawn. The source made the active and inactive calls. The rule behind the calls is not given here.

How the values were obtained:
Format in all cases: functional, cell-based
MDA-MB-231 [1] = experiment: Inhibition of human MDA-MB-231 cells invasion by Matrigel cell invasion assay
MDA-MB-231 [2] = experiment: Inhibition of human MDA-MB-231 cells invasion at <50 ug/mL by Matrigel cell invasion assay
MDA-MB-231 [3] = experiment: Inhibition of human MDA-MB-231 cells invasion at 2.5 ug/mL by Matrigel cell invasion assay

Row | IC50 (MDA-MB-231 [1]) [mg/L] | SMILES | Activity (MDA-MB-231 [2]) | Activity (MDA-MB-231 [3])
1 | 7 (≈ 16.4 µM) | C[C@@]12CC[C@@H]3[C@]4(CCC[C@]3(C)C(=O)OC4)[C@H]1CC[C@](C)(O)[C@H]2CC1=CC(=O)C=CC1=O |  | 
2 | 7 (≈ 16.3 µM) | C[C@@]12CC[C@@H]3[C@]4(CCC[C@]3(C)C(=O)OC4)[C@H]1CC[C@](C)(O)[C@H]2Cc1cc(O)ccc1O [strongylophorine-8] |  | 
3 | 1 (≈ 2.19 µM) | COC1=CC(=O)C=C(C[C@H]2[C@]3(C)CC[C@@H]4[C@]5(CCC[C@]4(C)C(=O)OC5)[C@H]3CC[C@]2(C)O)C1=O [strongylophorine-26] |  | Active

Further lines, the molecule ahead of its results:

Row | SMILES | IC50 (MDA-MB-231 [1]) [mg/L] | Activity (MDA-MB-231 [2]) | Activity (MDA-MB-231 [3])
4 | C=C1CCC[C@H]2[C@](C)(CC3=C(O)C(=O)C=C(OC)C3=O)[C@@H](C)CC[C@]12C |  | inactive | 
5 | NCCCNCCCN1CCCC/C=C\CCCCCCCC1 [MOTUPORAMINE C] | 0.3 (≈ 0.927 µM) |  | 
